For orientation: EC50 means the concentration that produces a half-maximal response. Lower therefore signals an effect from little substance.

One data set concerns T. b. brucei Lister 427. The data set is described as follows: Wash-out studies, Lister 427. It counts as cell-based. The following applies: concentrations greater than 2 to 4 µM, exposure longer than 4-6 hours, 3 days in drug free medium. On the procedure: In order to estimate a killing-dose for in vivo trials, a series of washout experiments were carried out: parasites were incubated with a given concentration of compound before washing out the drug and determining whether the parasites were still viable and able to proliferate. […] The existence of a small population of parasites more resistant to the effects of the CTCB compounds might be explained by subpopulations of parasites being present at different stages of the cell cycle. The parasite cultures used in the killing experiments are not synchronised, and it is likely that ATP requirement varies depending on cell cycle phase and a subpopulation with lower ATP requirement may be less susceptible to the CTCB compounds, however, this phenomenon needs further investigation.
In vitro ‘wash-out’ studies were performed to determine the reversibility of the action of the CTCB compounds on trypanosomes, after a certain exposure time, and thus to assess whether the compounds have a trypanocidal or trypanostatic effect. These experiments were carried out with both the T. b. brucei Lister 427 and T. b. brucei GVR35-luc strains. […] The cell suspensions were then incubated under regular culture conditions for 3 days and parasite growth monitored daily by light microscopy. […]

A further data set concerns T. b. gambiense. Kind of data set: EC50 against in vitro cultured T. b. gambiense (STMI). It counts as cell-based. The following applies: Trypanosoma brucei.
Data set [1] in a line: Mouse hepatocytes intrinsic clearance. The class given is in vitro ADME. An excerpt:
Methods are described in Supplementary Methods 5 and 6. Enzyme assay results are means ± SD in multiple assays. ADME results are averages of n = 2 or 3 measurements in individual assays.

A short description of data set [2]: Brain and plasma concentrations in mice after oral dose. The class given is in vivo. The following applies: female, CD-1, mouse, single oral dose of 50 mg kg^−1, 2 h. On the procedure: These values for concentrations of free compound in the brain give a Kp,uu value of 0.6 (defined as the ratio of unbound compound in brain to unbound compound in plasma). This ratio provides an estimate of the amount of free drug in the brain interstitial fluid as being just over half the free concentration in the blood.
Blood samples were collected from terminal cardiac puncture at 0.08 (IV only), 0.25, 0.5, 1 (PO only), 2, 4, 8 and 24 hour time points. The whole blood was centrifuged to obtain plasma. Brains were also collected following cardiac perfusion from both sets of animals at 2 hours. Analysis of the biological samples was carried out by the company Selcia. Plasma proteins were precipitated by addition of PBS (1 volume) followed by 3 volumes of acetonitrile containing internal standard (verapamil). Following filtration through a protein precipitation plate the eluent was dried under nitrogen and re-suspended in mobile phase prior to analysis. Individual brains were homogenised in PBS and diluted to 10% w/v and divided into aliquots consisting of brain homogenate (1 volume, 0.3 ml) and 3 volumes (0.9 ml) of acetonitrile containing internal standard. Samples were centrifuged and supernatants removed and taken through a protein precipitation plate alongside an appropriate standard. […] Eluents were analysed by LC-MS/MS using a Phenomenex Gemini NX column (C18,30 x 2.1 mm, 3 micron). […]

SMILES strings stand for the structures. Read-outs that look alike come from different tables or passages of the source.

For the compound `CN(C)CCn1ccc2c(ccn2Cc2ccc(Cl)c(Br)c2)c1=O` [CTCB-470, 1-[(3-Bromo-4-chlorophenyl)methyl]-5-[2-(dimethylamino)ethyl] pyrrolo[3,2-c]pyridin-4-one], the “wash-out: grow-back after removal of drug” value in the data set on T. b. brucei Lister 427 is on record as “no grow-back”. In the data set on T. b. gambiense, this compound displayed an EC50 of 140 nM. Also, the “Mouse hepatocytes Clint” value in data set [1] was 3.6 µL min^−1 per 10^6 cells.
Regarding `CN(C)CCn1ccc2c(ccn2Cc2ccc(Cl)c(Cl)c2)c1=O` [CTCB-405, 1-[(3,4-Dichlorophenyl)methyl]-5-[2-(dimethylamino)ethyl] pyrrolo[3,2-c]pyridin-4-one], the “wash-out: grow-back after removal of drug” value with T. b. brucei Lister 427 is reported as “no grow-back”. Moreover, the EC50 in the data set on T. b. gambiense turned out to be 190 nM. Besides, the “Mouse hepatocytes Clint” value in data set [1] amounted to 3.7 µL min^−1 per 10^6 cells. Moreover, the concentration at 2 h came out at 1510 ng/g in data set [2] (brain homogenate, read-out: mean concentration in brain homogenate) and 366 ng/mL in data set [2] (plasma, read-out: mean plasma concentration).

The record behind these values is paper PMC7887271, “Fast acting allosteric phosphofructokinase inhibitors block trypanosome glycolysis and cure acute African trypanosomiasis in mice” (Nature Communications, 2021).
